Laboratory results as given in publication PMC8682760, “Specificity and sensitivity of an RNA targeting type III CRISPR complex coupled with a NucC endonuclease effector” (Nucleic Acids Research, 2021).
Values joined by “and” are separate entries in the source; they are usually repeats but may differ in a detail not shown here. Equal values may be shown once.

Experiments:
NucC = target: T1, NucC (Vibrio metoecus, UniProt P0DUD6); test: fluorogenic dsDNA (FAM/Iowa Black) cleavage, plate reader; assay type: biochemical; details: read-out: Act50
T1 construct: Codon-optimised synthetic gene in pEV5HisTEV, N-terminal His8 tag (TEV step as for VmeCmr), E. coli C43(DE3); trimeric species used
T1 sequence (P0DUD6 1-245): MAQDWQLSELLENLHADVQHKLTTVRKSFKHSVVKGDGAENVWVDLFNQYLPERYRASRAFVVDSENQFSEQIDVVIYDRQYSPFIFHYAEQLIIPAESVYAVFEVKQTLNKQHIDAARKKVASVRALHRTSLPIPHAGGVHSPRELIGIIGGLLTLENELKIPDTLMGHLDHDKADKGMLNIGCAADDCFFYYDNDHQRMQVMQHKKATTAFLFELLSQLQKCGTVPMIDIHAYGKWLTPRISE

[1] = target: the molecule itself; test: SEC; HiLoad 16/60 Superdex pg 200, 20 mM Tris-HCl, 250 mM NaCl, 10% (v/v) glycerol, pH 7.5; peaks at approximately 160 ml and 180 ml

## Nc1ncnc2c1ncn2[C@@H]1O[C@@H]2COP(=O)(O)O[C@H]3[C@@H](O)[C@H](n4cnc5c(N)ncnc54)O[C@@H]3COP(=O)(O)O[C@H]3[C@@H](O)[C@H](n4cnc5c(N)ncnc54)O[C@@H]3COP(=O)(O)O[C@H]2[C@H]1O [cA3]
NucC
  EC50: 0.094 ± 0.004 nM

B1: Vibrio metoecus NucC DNA endonuclease effector (enzyme, UniProt P0DUD6 1-245, looked up)
chain: MAQDWQLSELLENLHADVQHKLTTVRKSFKHSVVKGDGAENVWVDLFNQYLPERYRASRAFVVDSENQFSEQIDVVIYDRQYSPFIFHYAEQLIIPAESVYAVFEVKQTLNKQHIDAARKKVASVRALHRTSLPIPHAGGVHSPRELIGIIGGLLTLENELKIPDTLMGHLDHDKADKGMLNIGCAADDCFFYYDNDHQRMQVMQHKKATTAFLFELLSQLQKCGTVPMIDIHAYGKWLTPRISE
notes: NucC of the Vibrio metoecus type III-B CRISPR locus; source: E. coli C43(DE3), purified (HisTrap, TEV, second HisTrap, SEC on Superdex 200); not shown: His8, N-terminal, cleaved
[1]
  stoichiometry N: 6 and 3
